The results in this text go back to ChEMBL document CHEMBL1201862, “PubChem BioAssay data set” (2004).

The structures appear in SMILES notation.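 Method: 48-hour compound exposure of cells in 96-well plates, five concentrations, linear interpolation of endpoints. The concentration for 50% growth inhibition is given as GI50.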 Activity calls are given as the source filed them. No stated cut-off is given here; in the data, active = GI50 up to about 1.1 µM and inactive = higher.

One may read the GI50 as the concentration at which growth is held to half of that of the control.

Some test systems named below: NCI-H522; CAKI-1; NCI-H23; MOLT-4; SNB-75; HOP-62; OVCAR-3; MDA-MB-435; KM12; Malme-3M; PC-3; HCT-116; SK-MEL-28; LOX IMVI; HL-60; IGROV-1; UACC-257; ACHN; OVCAR-5; MDA-N.
Test in all cases: DTP human tumour cell line panel, 48 h

Take `Nc1ncnc2c1ncn2C1OC(CO)C(O)C1N` (stereo not given): the GI50 in the assay with NCI-H522, in the assay with CAKI-1, in the assay with NCI-H23, in the assay on MOLT-4, with SNB-75 and in the assay with HOP-62 was > 100 µM (inactive) throughout. Besides, the GI50 in the assay on OVCAR-3, in the assay on MDA-MB-435, in the assay with KM12, with Malme-3M, in the assay with PC-3 and in the assay with HCT-116 was > 100 µM (inactive) in each case. Further, the GI50 in the assay on SK-MEL-28, in the assay on LOX IMVI, in the assay on HL-60, with IGROV-1, in the assay with UACC-257 and in the assay on ACHN was > 100 µM (inactive) in each case. For the same compound, the GI50 with OVCAR-5 and in the assay on MDA-N was > 100 µM (inactive) in each case.

In the case of `CC[N+]1(C)CCC(O)(c2ccc(OC)cc2)C(C(=O)c2ccc(OC)cc2)C1` (stereo not given), the GI50 was 1.98 µM (inactive) with NCI-H522; 5.9 µM (inactive) in the assay with CAKI-1; 17.9 µM (inactive) in the assay on NCI-H23; 2.23 µM (inactive) with MOLT-4; 13.7 µM (inactive) in the assay with SNB-75; 18.9 µM (inactive) in the assay on HOP-62. In addition, the GI50 in the assay with OVCAR-3 was 12.4 µM (inactive); in the assay with MDA-MB-435, 16.8 µM (inactive); in the assay with KM12, 16 µM (inactive); with Malme-3M, 6.44 µM (inactive); in the assay on PC-3, 17.7 µM (inactive); with HCT-116, 9.27 µM (inactive). Besides, the GI50 in the assay on SK-MEL-28 is 15.1 µM (inactive); in the assay with LOX IMVI it was 16.3 µM (inactive); in the assay on HL-60, 2.52 µM (inactive); in the assay on IGROV-1, 20.5 µM (inactive); in the assay on UACC-257, 17.5 µM (inactive); with ACHN, 13.1 µM (inactive). For the same compound, the GI50 is 18.7 µM (inactive) with OVCAR-5 and 16.6 µM (inactive) in the assay with MDA-N.

`Cc1ccc(CC2(OCCN(C)C)CCC(C(C)(C)C)CC2)cc1` (stereo not given): the GI50 was 3.53 µM (inactive) in the assay on NCI-H522; 4.99 µM (inactive) in the assay with CAKI-1; 10.7 µM (inactive) with NCI-H23; 1.71 µM (inactive) with MOLT-4; 6.81 µM (inactive) with SNB-75; 3.01 µM (inactive) in the assay with HOP-62. For the same compound, the GI50 in the assay with OVCAR-3 was 9.68 µM (inactive); in the assay with MDA-MB-435, 2.37 µM (inactive); in the assay with KM12 it was 3.62 µM (inactive); in the assay on Malme-3M it was 1.63 µM (inactive); with PC-3, 3.04 µM (inactive); in the assay with HCT-116 it was 2.38 µM (inactive). Further, the GI50 with SK-MEL-28 is 1.88 µM (inactive); with LOX IMVI it was 1.57 µM (inactive); with HL-60 it was 0.767 µM (active); in the assay on IGROV-1, 6.5 µM (inactive); in the assay with UACC-257, 2.65 µM (inactive); in the assay on ACHN it was 6.87 µM (inactive). For the same compound, the results for the GI50 in the assay with OVCAR-5 and with MDA-N were 5.52 µM (inactive) and 2.53 µM (inactive), respectively.

Take `Nc1ccn(C2OC(CO)C(O)C2O)c(=O)n1` (stereo not given): the GI50 is 22.6 µM (inactive) in the assay on NCI-H522; 1.04 µM (active) in the assay with CAKI-1; 0.248 µM (active) with NCI-H23; 0.0582 µM (active) with MOLT-4; 308 µM (inactive) with SNB-75; 0.213 µM (active) in the assay on HOP-62. For the same compound, the GI50 was 429 µM (inactive) with OVCAR-3; 35.4 µM (inactive) in the assay on MDA-MB-435; 468 µM (inactive) in the assay with KM12; 13.8 µM (inactive) with Malme-3M; 36.5 µM (inactive) in the assay on PC-3; 0.207 µM (active) with HCT-116. Also, the GI50 with SK-MEL-28 was 68.2 µM (inactive); in the assay on LOX IMVI, 0.219 µM (active); in the assay on HL-60 it was 0.203 µM (active); in the assay with IGROV-1 it was 313 µM (inactive); in the assay on UACC-257, 120 µM (inactive); in the assay with ACHN, 0.277 µM (active). Also, the figures for the GI50 in the assay with OVCAR-5 and in the assay on MDA-N were 21.2 µM (inactive) and 7.45 µM (inactive), respectively.

In the case of `CNCCN[C@@H]1c2cc3c(cc2[C@@H](c2cc(OC)c(O)c(OC)c2)[C@H]2C(=O)OC[C@@H]21)OCO3`, the GI50 was 0.251 µM (active) in the assay with NCI-H522; 0.264 µM (active) with CAKI-1; 0.185 µM (active) in the assay with NCI-H23; 0.0104 µM (active) with MOLT-4; 0.274 µM (active) in the assay on SNB-75; 0.141 µM (active) with HOP-62. Further, the GI50 in the assay with OVCAR-3 is 0.968 µM (active); in the assay with MDA-MB-435, 1.66 µM (inactive); with KM12, 0.406 µM (active); in the assay on Malme-3M, 0.288 µM (active); in the assay with PC-3, 0.649 µM (active); in the assay with HCT-116, 0.432 µM (active). Also, the concentration for 50% growth inhibition (GI50) was 0.665 µM (active) in the assay with SK-MEL-28; 0.153 µM (active) in the assay with LOX IMVI; < 0.016 µM (active) in the assay with HL-60; 0.418 µM (active) in the assay on IGROV-1; 0.652 µM (active) in the assay on UACC-257; 0.106 µM (active) with ACHN. Moreover, the results for the concentration for 50% growth inhibition (GI50) in the assay on OVCAR-5 and in the assay on MDA-N were 0.966 µM (active) and 1.04 µM (active), respectively.

Turning to `O=C(/C=C/c1ccc(OCc2ccccc2)c(OCc2ccccc2)c1)OCc1ccccc1`, the GI50 in the assay on NCI-H522, with CAKI-1, with NCI-H23, with MOLT-4, in the assay with SNB-75 and with HOP-62 was > 100 µM (inactive) throughout. Besides, the GI50 in the assay with OVCAR-3, with MDA-MB-435, in the assay with KM12, in the assay on Malme-3M, in the assay on PC-3 and in the assay on HCT-116 was > 100 µM (inactive) each time. Moreover, the GI50 with SK-MEL-28, in the assay on LOX IMVI, in the assay with HL-60, with IGROV-1, in the assay with UACC-257 and in the assay with ACHN was > 100 µM (inactive) each time. For the same compound, the GI50 in the assay on OVCAR-5 and in the assay with MDA-N was > 100 µM (inactive) throughout.

For `CCOc1ccc2nc(NC(=O)C(=O)C(C(=O)c3ccccc3-c3ccccc3)C3OC(=O)c4ccccc43)sc2c1` (stereo not given), the GI50 is 16.7 µM (inactive) in the assay with NCI-H522; 23.2 µM (inactive) in the assay on CAKI-1; 17.9 µM (inactive) with NCI-H23; 13.2 µM (inactive) in the assay on MOLT-4; 21.3 µM (inactive) with SNB-75; 25.5 µM (inactive) in the assay on HOP-62. The GI50 was 18.7 µM (inactive) with OVCAR-3; 25.4 µM (inactive) with MDA-MB-435; 8.93 µM (inactive) with KM12; 13.8 µM (inactive) in the assay with Malme-3M; 18.2 µM (inactive) with PC-3; 18.4 µM (inactive) in the assay with HCT-116. Besides, the GI50 in the assay on SK-MEL-28 was 20.2 µM (inactive); with LOX IMVI, 17.5 µM (inactive); in the assay on HL-60 it was 22.8 µM (inactive); in the assay on IGROV-1, 26.7 µM (inactive); in the assay on UACC-257, 22.4 µM (inactive); in the assay on ACHN, 30.2 µM (inactive). The GI50 is 44.3 µM (inactive) with OVCAR-5 and 19.6 µM (inactive) with MDA-N.

Regarding `CC(/C=C/C=C/C=C/C=C/C=C/C(=O)C1=C(O)C(CCC(=O)O)N(C)C1=O)=C\C(C)C(OC1CC(O)C(O)C(C)O1)C(C)C` (stereo not given), the GI50 in the assay on NCI-H522 is 2.91 µM (inactive); in the assay on CAKI-1, 3.5 µM (inactive); in the assay on NCI-H23, 2.62 µM (inactive); in the assay on MOLT-4 it was 2.82 µM (inactive); with SNB-75, 3.89 µM (inactive); in the assay with HOP-62 it was 1.87 µM (inactive). For the same compound, the GI50 in the assay on OVCAR-3 was 1.98 µM (inactive); in the assay with MDA-MB-435, 3 µM (inactive); in the assay on KM12 it was 1.88 µM (inactive); with Malme-3M, 2.23 µM (inactive); with PC-3 it was 3.32 µM (inactive); in the assay on HCT-116 it was 2.82 µM (inactive). The GI50 with SK-MEL-28 was 2.68 µM (inactive); in the assay with LOX IMVI, 3.44 µM (inactive); in the assay with HL-60 it was 2.43 µM (inactive); in the assay with IGROV-1, 1.82 µM (inactive); in the assay with UACC-257 it was 2.15 µM (inactive); in the assay with ACHN, 3.13 µM (inactive). In addition, the GI50 in the assay on OVCAR-5 was 2.27 µM (inactive); with MDA-N, 2.97 µM (inactive).

As for `C=C1CCC([N+](=O)[O-])[C@](C)(N=O)CC[C@@H]2C1CC2(C)C` (stereo not given in full), the GI50 with NCI-H522 was 19.4 µM (inactive); with CAKI-1, 34 µM (inactive); in the assay on NCI-H23, 17.2 µM (inactive); with MOLT-4, 20.5 µM (inactive); with SNB-75 it was 18.9 µM (inactive); with HOP-62, 38.3 µM (inactive). Besides, the GI50 in the assay on OVCAR-3 was 23.6 µM (inactive); in the assay with MDA-MB-435, > 10 µM (inactive); with KM12, 24.5 µM (inactive); with Malme-3M, 22 µM (inactive); with PC-3 it was 26.4 µM (inactive); in the assay on HCT-116, 14.8 µM (inactive). Moreover, the GI50 in the assay with SK-MEL-28 was > 10 µM (inactive); with LOX IMVI it was 16.1 µM (inactive); with HL-60, 5.43 µM (inactive); in the assay with IGROV-1, 24.4 µM (inactive); with UACC-257, 23 µM (inactive); with ACHN, 37 µM (inactive). The values for the GI50 with OVCAR-5 and in the assay with MDA-N were 16.1 µM (inactive) and 11.6 µM (inactive), respectively.

Take `O=C(c1cccs1)N1CCN(C(=O)c2cccs2)C1=S`: the GI50 in the assay on NCI-H522 is 3.98 µM (inactive); in the assay on CAKI-1, 3.68 µM (inactive); in the assay on NCI-H23, 12.7 µM (inactive); in the assay with MOLT-4, 3.24 µM (inactive); in the assay with SNB-75, 2.28 µM (inactive); with HOP-62 it was 5.04 µM (inactive). The GI50 was 2.94 µM (inactive) in the assay with OVCAR-3; 2.88 µM (inactive) in the assay on MDA-MB-435; 3.23 µM (inactive) in the assay with KM12; 9.38 µM (inactive) in the assay with Malme-3M; 4.5 µM (inactive) in the assay with PC-3; 8.77 µM (inactive) in the assay on HCT-116. For the same compound, the GI50 in the assay with SK-MEL-28 was 5.13 µM (inactive); with LOX IMVI, 2.86 µM (inactive); in the assay on HL-60 it was 2.23 µM (inactive); in the assay on IGROV-1, 6.7 µM (inactive); in the assay on UACC-257, 6.19 µM (inactive); in the assay with ACHN it was 7.41 µM (inactive). Moreover, the GI50 was 16 µM (inactive) in the assay on OVCAR-5 and 3.69 µM (inactive) in the assay on MDA-N.
